# Results reported in patent US8784860B2 (Cordis Corporation, priority 2005, dated 2014).
# “Also recorded” adds a separate entry of the source.
# Columns and labels:
# [1] = Liquid formulations: drug concentration by liquid chromatography and visual observation; assay type: physicochemical; details: water, ethanol less than two percent, Vitamin E TPGS
# Procedure: The concentrations of each constituent were determined by liquid chromatography and are presented as weight by volume figures.
# The liquid formulation was created utilizing the following process. Two hundred milligrams of sirolimus and two grams of ethanol were added to a pre-weighed twenty milliliter scintillation vial. The vial was vortexed and sonicated until the sirolimus was completely dissolved. Approximately six hundred milligrams of Vitamin E TPGS was then added to the solution of ethanol and sirolimus. The vial was vortexed again until a clear yellowish solution was obtained. Nitrogen gas was then used to reduce the amount of ethanol in the vial to approximately two hundred twenty-nine milligrams. In a separate vial, three hundred milligrams of Vitamin E TPGS was dissolved in eleven milliliters of purified water while undergoing vortexing. The Vitamin E TPGS and water solution was then added to the first vial containing the sirolimus, Vitamin E TPGS and ethanol. The first vial was then vortexed vigorously and continuously for three minutes.
# In another exemplary embodiment, a liquid formulation of CCI-779, a sirolimus analog, is prepared utilizing ethanol, Vitamin E TPGS and water. This liquid formulation was made under similar conditions as to that described above. […]
# [2] = tested on: human coronary artery smooth muscle cells; assay: Anti-proliferative activity in synchronized cultured coronary artery smooth muscle cells, two percent fetal bovine serum; assay type: cell-based
# Description: (§1) The multiple curves represent various concentrations of topotecan ranging from zero to three hundred nanomolar concentrations.
# (§2) The multiple curves represent various concentrations of etoposide ranging from zero to eight hundred nanomolar concentrations.
# Referring to FIG. 66, there is illustrated, in graphical format, the anti-proliferative activity of Panzem® in synchronized cultured human coronary artery smooth muscle cells stimulated with two percent fetal bovine serum.
# The multiple curves represent various concentrations of Panzem® ranging from zero to 100 micromolar concentrations.
# [3] = tested on: human coronary artery smooth muscle cell; details: concentrations 6.6 nanomolar up to 30,000.00 nanomolar
# Description: In vitro cytotoxicity tests or assays may be utilized to determine if drugs, agents and/or compounds are potentially toxic and the level of toxicity. Essentially, in vitro cytotoxicity assays determine acute necrotic effects by a drug causing direct cellular damage. The idea behind these assays is that toxic chemicals affect basic functions of cells which are common to all cells. […] There are a number of different assays that may be utilized. In the present invention, the cytotoxicity assay utilized is based upon the measurement of cellular metabolic activity. A reduction in metabolic activity is an indication of cellular damage. Tests that can measure metabolic function measure cellular ATP levels or mitochondrial activity via MTS metabolism. FIG. 69 is a graphical representation of the results of an MTS assay of Panzem®.
# bovine blood = assay: In vitro bovine blood loop model (In 111 labeled platelets); details: sirolimus/cilostazol coated stents versus control
# Description: The anti-thrombotic efficacy of the above-described three configurations is illustrated in FIG. 80. FIG. 80 illustrates the anti-thrombotic properties of the sirolimus/cilostazol combination coatings described above in an in vitro bovine blood loop model. In the in vitro bovine blood loop model, fresh bovine blood is heparinized to adjust for acute clotting time (ACT) of about two hundred (200) seconds. The platelet content in the blood is labeled through the use of Indium 111. In the study, a stent is deployed in a silicone tube, which is part of a closed loop system for blood circulation. The heparinzed blood is circulated through the closed loop system by means of a circulating pump. Blood clots and thrombus builds up on a stent surface over time and reduces the flow rate of blood through the stented loop. […] The control drug eluting stent is the Cypher® sirolimus eluting coronary stent available from Cordis Corporation. Bar 8004 is a stent coated with heparin and is available from Cordis Corporation under the […]® on the Bx Velocity® coronary stent trademark. Bar 8006 is a stent configured as set forth with respect to the architecture illustrated in FIG. 75. Bar 8008 is a stent configured as set forth with respect to the architecture illustrated in FIG. 77. Bar 8010 is a stent configured as set forth with respect to the architecture illustrated in FIG. 79.
# [4] = In vitro release kinetics from stent coatings; assay type: physicochemical; details: for in vitro release rate of cladribine, effect of topcoat: twenty-five percent ethanol/water, room temperature
# [5] = Porcine pharmacokinetics studies: in vivo release kinetics from stent coatings; details: for drug remained in the drug coating: after eight (8) days of implantation, porcine, single layer sirolimus + cilostazol in EVA/BMA, 100 μg BMA overcoat (FIG. 83)
# Description: The topcoat is two hundred micro grams.
# FIG. 61 is a graphical representation of the in vivo release kinetics of cladribine from a polymeric coating on Bx Velocity® stents, available from Cordis Corporation, implanted in a Yorkshire pig. The basecoat comprises an 85/15 ratio of PVDF and HFP and cladribine for a total combined weight of one thousand eight hundred micrograms (cladribine comprising thirty percent of the total weight). The topcoat comprises an 85/15 ratio of PVDF/HFP and no cladribine. The total weight of the topcoat is three hundred micrograms.
# (§3) The basecoat is applied to Bx Velocity® stents and implanted into Yorkshire pigs.
# as §3
# Another critical parameter for the performance of the thrombus resistance of a device coated with cilostazol is the duration of the drug release from the coating. This is of particular significance in the two weeks after device implantation. […] The purpose of the porcine PK study is to assess the local pharmacokinetics of a drug eluting stent at a given implantation time. Normally three stents are implanted in three different coronary arteries in a pig for a given time point and then retrieved for total drug recovery analysis. The stents are retrieved at predetermined time points; namely, 1, 3 and 8 days. The stents are extracted and the total amount of drug remaining on the stents is determined by analysis utilizing HPLC (high performance liquid chromatography) for total drug amount. The difference between the original amount of drug on the stent and the amount of drug retrieved at a given time represents the amount of drug released in that period. The continuous release of drug into surrounding arterial tissue is what prevents the neointimal growth and restenosis in the coronary artery. A normal plot represents the percentage of total drug released (%, y-axis) vs. time of implantation (day, x-axis). […] Curve 8102 represents cilostazol and curve 8104 represents sirolimus. […] In this exemplary configuration, the stent 8300 is coated with two layers. The first layer 8302 comprises a combination of sirolimus, cilostazol and a copolymer matrix of EVA/BMA. The second layer or diffusion overcoat 8304 comprises only BMA. More specifically, in this embodiment, the first layer 8302 comprises a combination of sirolimus and cilastazol that is forty-five (45) percent by weight of the total weight of the first layer 8302 and an EVA/BMA copolymer matrix that is fifty-five (55) percent by weight of the total weight of the first layer 8302. The diffusion overcoat comprises one hundred (100 μg) micrograms of BMA.
# [6] = tested on: human smooth muscle cells; assay: Cladribine Example: PDGF-stimulated proliferation of smooth muscle cells; assay type: cell-based; details: from IC50 values 23 and 40 nanomolar
# Procedure: To assess the ability of cladribine to prevent cell proliferation, human smooth muscle or endothelial cells (Clonetics, Walkersville, Md.) were seeded at a density of 2000 cells/cm^2 (approximately 3600 cells/well) into each well of 12-well plates and cultured with 1.5 ml of growth medium containing five percent fetal calf serum (FCS). After twenty-four hours, the growth medium was changed and fresh medium containing 10 ng/ml platelet-derived growth factor AB (PDGF AB; LIFE Technologies), as well as various concentrations of cladribine (0.001-10,000 nM) were added with triplicate wells. Medium was replaced with fresh cladribine-containing medium after three days. On day six, cells were detached by trypsinization to yield a cell suspension, lightly centrifuged to pellet and then counted manually using a Neubauer hemocytometer system. Cell viability was assessed by trypan blue exclusion.
# [7] = tested on: human coronary artery smooth muscle cells; assay: Anti-proliferative activity in non-synchronized cultured coronary artery smooth muscle cells, two percent fetal bovine serum; assay type: cell-based
# Description: The multiple curves represent various concentrations of mycophenolic acid ranging from zero to one thousand nanomolar concentrations.
# FIG. 58 illustrates, in graphical format, the anti-proliferative activity of cladribine in non-synchronized cultured human coronary artery smooth muscle cells stimulated with two percent fetal bovine serum.
# The multiple curves represent various concentrations of cladribine ranging from zero to nine hundred nanomolar concentrations.
# cell viability = assay: Cell viability assay; assay type: cell-based
# Description: as §1, §2
# tumor cell lines = tumor cell lines (Woo et al., 2002); cited from earlier work
# [8] = tested on: human coronary artery smooth muscle cell; assay: In vitro cell culture study of coronary artery smooth muscle cell proliferation (trichostatin A); assay type: cell-based
# Description: FIG. 51 is a graph of the inhibition of coronary artery smooth muscle cells by trichostatin A in a cell culture study.
# [9] = 600 μg EVA/BMA basecoat with 30% rapamycin and 30% mycophenolic acid, no, 100 or 200 μg BMA topcoat
smiles,measurement,setting,value
CO[C@H]1C[C@@H]2CC[C@@H](C)[C@@](O)(O2)C(=O)C(=O)N2CCCC[C@H]2C(=O)O[C@H]([C@H](C)C[C@@H]2CC[C@@H](OC(=O)C(C)(CO)CO)[C@H](OC)C2)CC(=O)[C@H](C)/C=C(\C)[C@@H](O)[C@@H](OC)C(=O)[C@H](C)C[C@H](C)/C=C/C=C/C=C/1C [CCI-779],concentration of CCI-779 in the final solution (HPLC),[1],15000 µg/mL
"COc1cc2c(cc1O)CC[C@@H]1[C@@H]2CC[C@]2(C)[C@@H](O)CC[C@@H]12 [Panzem®, 2-methoxyestradiol]",effect of Panzem on the anti-proliferative activity of rapamycin,[2]; Panzem 0.813 to 100 micromolar added to rapamycin,potentiation of rapamycin by Panzem®; also recorded: increases the percent of inhibition of rapamycin alone
same,anti-proliferative activity (single agent),"[2]; synchronized human coronary artery smooth muscle cells, two percent fetal bovine serum",extremely effective inhibitor of human coronary artery smooth muscle cell proliferation in vitro
same,"cytotoxicity, MTS assay",[3],do not reduce human coronary artery smooth muscle cell survival
"O=C1CCc2cc(OCCCCc3nnnn3C3CCCCC3)ccc2N1 [cilostazol, 6[4-(1-cyclohexyl-1H-tetrazol-5-yl)-butoxy]-3,4-dihydro-2-(1H)-quinolinone]",thrombus formation,bovine blood,significantly reduces thrombus formation
same,"in vitro drug release rate, 200 μg versus 100 μg BMA diffusion overcoat",[4]; layered sirolimus/cilostazol coatings of FIGS. 75 and 77,comparatively slower from the configuration comprising the thicker diffusion overcoat of BMA
same,in vitro release,"[4]; single layer sirolimus + cilostazol in EVA/BMA, 100 μg BMA overcoat (FIG. 83)",~35%
same,drug remained in the drug coating,[5],~80%
"Nc1nc(Cl)nc2c1ncn2[C@H]1C[C@H](O)[C@@H](CO)O1 [cladribine, 2-chlorodeoxyadenosine]",potency as inhibitor of smooth muscle cells relative to endothelial cells,[6],approximately twice
same,"in vitro release rate of cladribine, effect of topcoat",[4]; non-sterile PVDF/HFP (85/15) coatings,increase in topcoat weight or thickness led to a decrease in the release rate of cladribine
same,"in vitro release rate of cladribine, effect of topcoat",[4]; sterile PVDF/HFP coating,drastic decrease of release rate of cladribine
same,in vivo elution of cladribine,"[5]; Bx Velocity stent, Yorkshire pig, 1800 μg PVDF/HFP (85/15) basecoat with 30% cladribine, 300 μg topcoat","after the first day, the elution of cladribine levels off significantly"
same,in vivo elution of cladribine compared with rapamycin,"[5]; EVA/BMA basecoat, 200 μg BMA topcoat, Yorkshire pigs",elutes more rapidly than rapamycin
same,effect of cladribine on the anti-proliferative rapamycin dose response curves,[7]; cladribine 56.25 to 900 nanomolar added to rapamycin,potentiate the anti-proliferative activity of rapamycin; also recorded: increases the percent inhibition of rapamycin alone
same,inhibition of human coronary artery smooth muscle cell proliferation,"[7]; non-synchronized cells, two percent fetal bovine serum",completely inhibits
COc1cc([C@@H]2c3cc4c(cc3[C@@H](O[C@@H]3O[C@@H]5CO[C@@H](C)O[C@H]5[C@H](O)[C@H]3O)[C@H]3COC(=O)[C@H]23)OCO4)cc(OC)c1O [etoposide],cytotoxicity in cell viability assay,cell viability; concentrations up to ten micromolar,non-cytotoxic
same,effect of etoposide on the anti-proliferative rapamycin dose response curves,[2]; etoposide 255.7 to eight hundred nanomolar added to rapamycin,potentiate the anti-proliferative activity of rapamycin; also recorded: increases the percent inhibition of rapamycin alone
COc1c(C)c2c(c(O)c1C/C=C(\C)CCC(=O)O)C(=O)OC2 [mycophenolic acid],"in vivo release of mycophenolic acid, effect of topcoat",[5]; [9],BMA topcoat does slow the release of mycophenolic acid
same,in vivo elution of mycophenolic acid compared with rapamycin,"[5]; EVA/BMA basecoat, BMA topcoat",elutes more completely over a shorter duration than the rapamycin
same,effect of mycophenolic acid on the anti-proliferative rapamycin dose response curve,[7]; mycophenolic acid zero to one thousand nanomolar added to rapamycin,potentiates the anti-proliferative activity of rapamycin
CO[C@H]1C[C@@H]2CC[C@@H](C)[C@@](O)(O2)C(=O)C(=O)N2CCCC[C@H]2C(=O)O[C@H]([C@H](C)C[C@@H]2CC[C@@H](O)[C@H](OC)C2)CC(=O)[C@H](C)/C=C(\C)[C@@H](O)[C@@H](OC)C(=O)[C@H](C)C[C@H](C)/C=C/C=C/C=C/1C [rapamycin],"in vivo release of rapamycin, effect of topcoat",[5]; [9],BMA topcoat does slow the release of rapamycin
same,in vivo release rates of rapamycin from three rapamycin/cladribine coatings,"[5]; 600 μg EVA/BMA basecoats with varied rapamycin/cladribine loads, 200 μg BMA topcoat, Yorkshire pigs",substantially similar to one another
same,in vivo release rate of rapamycin compared with mycophenolic acid,"[5]; 600 μg PVDF basecoat, 200 μg PVDF topcoat",slower release rate than that of mycophenolic acid
same,drug remained in the drug coating,[5],~80%
CC[C@@]1(O)C(=O)OCc2c1cc1n(c2=O)Cc2cc3c(CN(C)C)c(O)ccc3nc2-1 [topotecan],cytotoxicity in cell viability assay,cell viability; concentrations up to one micromolar,non-cytotoxic
same,effect of topotecan on the anti-proliferative rapamycin dose response curves,[2]; topotecan 18.8 to 300 nanomolar added to rapamycin,potentiate the anti-proliferative activity of rapamycin; also recorded: increases the percent inhibition of rapamycin alone
CC(/C=C/C(=O)NO)=C\[C@@H](C)C(=O)c1ccc(N(C)C)cc1 [trichostatin A],anti-proliferative IC50's,tumor cell lines,low nM range
same,inhibition of human coronary artery smooth muscle cell proliferation,[8],completely inhibit
same,IC50,"[8]; human coronary artery smooth muscle cells, read-out: anti-proliferative IC50",~6 nM
